Measured values reported in publication PMC12172032, “Chemical and Genetic Validation of an Essential Calcium Entry Channel of Trypanosoma brucei as a Therapeutic Target” (ACS Infectious Diseases, 2025).

Biological target: T1, TbCaV (TbCav; FS179; TbCaCh) (Trypanosoma brucei, UniProt Q38BV7)
T1 construct: gene Tb10.70.4750; native full-length channel in intact T. brucei cells, 2693 aa, approx. 301 kDa, single subunit, untagged wild type
Assay: Ca2+ entry into intact T. brucei, Cal-590 fluorescence
Type: cell-based
Conditions: wild-type T. brucei BSF (Figure 9A inset); 1.8 mM Ca2+ added after 100 μM EGTA, BAG buffer pH 7.0; whole-cell Ca2+ entry attributed to TbCaV, direct binding not shown

T1 sequence (Q38BV7 1-2693): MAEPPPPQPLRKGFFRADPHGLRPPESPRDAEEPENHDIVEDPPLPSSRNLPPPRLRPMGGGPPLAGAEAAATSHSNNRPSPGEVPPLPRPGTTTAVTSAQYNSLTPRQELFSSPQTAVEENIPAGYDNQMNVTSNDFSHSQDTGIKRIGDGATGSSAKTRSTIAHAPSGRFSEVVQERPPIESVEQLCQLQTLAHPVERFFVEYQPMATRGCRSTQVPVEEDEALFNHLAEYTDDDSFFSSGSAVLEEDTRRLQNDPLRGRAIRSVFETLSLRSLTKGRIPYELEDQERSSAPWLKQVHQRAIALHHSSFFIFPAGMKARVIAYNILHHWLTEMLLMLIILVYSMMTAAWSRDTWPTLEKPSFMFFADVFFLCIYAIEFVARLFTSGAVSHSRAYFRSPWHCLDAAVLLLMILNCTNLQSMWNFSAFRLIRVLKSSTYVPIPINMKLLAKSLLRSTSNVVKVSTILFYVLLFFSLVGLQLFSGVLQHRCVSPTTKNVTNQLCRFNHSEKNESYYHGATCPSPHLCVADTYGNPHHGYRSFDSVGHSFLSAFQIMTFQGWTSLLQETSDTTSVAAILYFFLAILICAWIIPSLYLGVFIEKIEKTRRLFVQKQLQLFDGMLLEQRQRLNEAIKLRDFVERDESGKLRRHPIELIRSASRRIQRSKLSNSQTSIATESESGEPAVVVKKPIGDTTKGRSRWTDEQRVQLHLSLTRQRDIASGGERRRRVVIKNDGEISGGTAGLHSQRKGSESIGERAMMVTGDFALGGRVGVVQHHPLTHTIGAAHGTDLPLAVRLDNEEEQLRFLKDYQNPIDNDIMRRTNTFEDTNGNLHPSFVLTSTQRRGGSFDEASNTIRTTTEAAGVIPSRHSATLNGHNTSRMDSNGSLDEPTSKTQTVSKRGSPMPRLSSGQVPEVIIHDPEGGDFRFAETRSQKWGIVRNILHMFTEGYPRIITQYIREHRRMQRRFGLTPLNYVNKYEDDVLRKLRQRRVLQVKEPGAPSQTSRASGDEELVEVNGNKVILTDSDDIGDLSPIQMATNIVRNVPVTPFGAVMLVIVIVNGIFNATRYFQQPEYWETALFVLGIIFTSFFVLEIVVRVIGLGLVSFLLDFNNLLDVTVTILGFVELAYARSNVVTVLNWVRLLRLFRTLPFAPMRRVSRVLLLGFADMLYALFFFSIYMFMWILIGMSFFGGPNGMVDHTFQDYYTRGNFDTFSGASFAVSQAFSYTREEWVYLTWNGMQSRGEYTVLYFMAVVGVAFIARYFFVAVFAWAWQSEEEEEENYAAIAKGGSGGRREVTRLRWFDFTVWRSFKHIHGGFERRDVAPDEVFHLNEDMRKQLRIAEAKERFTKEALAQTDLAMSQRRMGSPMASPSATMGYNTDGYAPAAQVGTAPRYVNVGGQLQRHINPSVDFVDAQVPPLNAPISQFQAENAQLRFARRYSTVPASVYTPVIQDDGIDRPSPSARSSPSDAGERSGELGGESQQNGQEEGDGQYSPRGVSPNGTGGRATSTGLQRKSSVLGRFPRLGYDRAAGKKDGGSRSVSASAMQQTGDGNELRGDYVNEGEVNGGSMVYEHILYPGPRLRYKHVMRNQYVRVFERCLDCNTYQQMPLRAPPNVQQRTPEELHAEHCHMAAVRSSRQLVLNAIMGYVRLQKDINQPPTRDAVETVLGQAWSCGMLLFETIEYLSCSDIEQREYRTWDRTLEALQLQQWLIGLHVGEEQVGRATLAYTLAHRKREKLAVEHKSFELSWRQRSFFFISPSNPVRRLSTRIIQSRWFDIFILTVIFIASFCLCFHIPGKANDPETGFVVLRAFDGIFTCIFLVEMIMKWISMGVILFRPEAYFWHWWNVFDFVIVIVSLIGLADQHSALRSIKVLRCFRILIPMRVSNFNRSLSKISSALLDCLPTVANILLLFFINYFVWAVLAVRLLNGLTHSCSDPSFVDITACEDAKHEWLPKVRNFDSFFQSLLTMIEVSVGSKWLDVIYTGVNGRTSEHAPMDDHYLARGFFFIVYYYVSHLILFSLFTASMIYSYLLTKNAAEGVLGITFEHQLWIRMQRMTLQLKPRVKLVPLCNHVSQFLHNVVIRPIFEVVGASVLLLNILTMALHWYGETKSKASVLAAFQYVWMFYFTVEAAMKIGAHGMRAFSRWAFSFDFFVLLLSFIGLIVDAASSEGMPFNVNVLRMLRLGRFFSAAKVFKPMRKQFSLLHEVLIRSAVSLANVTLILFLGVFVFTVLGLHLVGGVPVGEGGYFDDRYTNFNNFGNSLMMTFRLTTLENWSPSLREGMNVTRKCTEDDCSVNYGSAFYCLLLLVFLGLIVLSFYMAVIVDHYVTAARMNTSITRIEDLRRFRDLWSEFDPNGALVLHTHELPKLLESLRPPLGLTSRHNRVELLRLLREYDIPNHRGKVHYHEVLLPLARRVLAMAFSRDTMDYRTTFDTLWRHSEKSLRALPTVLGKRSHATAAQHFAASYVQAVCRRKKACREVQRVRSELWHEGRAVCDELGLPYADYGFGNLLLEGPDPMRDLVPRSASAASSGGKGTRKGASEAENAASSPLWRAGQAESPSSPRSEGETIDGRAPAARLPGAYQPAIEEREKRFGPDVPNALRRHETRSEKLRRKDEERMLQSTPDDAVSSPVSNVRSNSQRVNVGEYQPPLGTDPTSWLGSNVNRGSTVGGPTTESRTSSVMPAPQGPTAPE

## CC(=O)Nc1ccc([N+](=O)[O-])c2nonc12 [NBD-A, N-(7-nitro-2,1,3-benzoxadiazol-4-yl) acetamide]
  IC50: 1460 ± 30 nM
